Results as given in ChEMBL document CHEMBL4619778, “Oligopeptides as Neuropeptide Y Y4 Receptor Ligands: Identification of a High-Affinity Tetrapeptide Agonist and a Hexapeptide Antagonist” (J Med Chem, 2020).
Square brackets hold non-standard residues; d marks the D form. Peptide text beside a SMILES is read from it. ξ: configuration not given here. ξOrn = NCCCC(N)C(=O)O

Columns and labels:
Homo sapiens [1] = species on record: Homo sapiens; assay: Selectivity ratio of Ki for displacement of [3H]propionyl-pNPY from human Y2 receptor expressed in CHO cells to Ki for displacement of [3H]UR-KK200 from human Y4 receptor expressed in CHO cells co-expressing Gqi5-mtAEQ; assay type: cell-based
Homo sapiens [2] = species on record: Homo sapiens; assay: Selectivity ratio of Ki for displacement of [3H]UR-MK299 from Y1 receptor in human SK-N-MC cells to Ki for displacement of [3H]UR-KK200 from human Y4 receptor expressed in CHO cells co-expressing Gqi5-mtAEQ; assay type: cell-based
[3] = biological target: T1, Neuropeptide Y receptor type 4 (Homo sapiens, UniProt P50391); assay: Agonist activity at human Y4R expressed in HEK293T cells co-expressing ARRB1 assessed as induction of beta-arrestin1 recruitment measured for 40 mins by D-luciferin based luminescence assay; assay type: cell-based, HEK-293T; conditions: read-out: EC50
T1 sequence (P50391 whole entry): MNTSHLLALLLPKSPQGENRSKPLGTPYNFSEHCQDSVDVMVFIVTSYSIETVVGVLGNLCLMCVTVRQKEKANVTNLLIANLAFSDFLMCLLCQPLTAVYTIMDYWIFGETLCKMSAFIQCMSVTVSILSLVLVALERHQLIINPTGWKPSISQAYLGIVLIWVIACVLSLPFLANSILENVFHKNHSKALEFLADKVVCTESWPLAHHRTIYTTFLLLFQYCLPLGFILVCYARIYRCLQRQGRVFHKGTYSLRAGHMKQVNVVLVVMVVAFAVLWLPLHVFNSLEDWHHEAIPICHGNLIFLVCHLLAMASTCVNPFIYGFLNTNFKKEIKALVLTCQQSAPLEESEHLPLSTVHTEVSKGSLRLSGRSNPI

[4] = biological target: T1, Neuropeptide Y receptor type 4; assay: Agonist activity at human Y4R expressed in HEK293T cells co-expressing ARRB2 assessed as induction of beta-arrestin2 recruitment measured for 40 mins by D-luciferin based luminescence assay; assay type: cell-based, HEK-293T
[5] = biological target: T2, Neuropeptide Y receptor type 1 (Homo sapiens, UniProt P25929); assay: Displacement of [3H]UR-MK299 from Y1 receptor in human SK-N-MC cells; assay type: cell-based
T2 sequence (P25929 whole entry): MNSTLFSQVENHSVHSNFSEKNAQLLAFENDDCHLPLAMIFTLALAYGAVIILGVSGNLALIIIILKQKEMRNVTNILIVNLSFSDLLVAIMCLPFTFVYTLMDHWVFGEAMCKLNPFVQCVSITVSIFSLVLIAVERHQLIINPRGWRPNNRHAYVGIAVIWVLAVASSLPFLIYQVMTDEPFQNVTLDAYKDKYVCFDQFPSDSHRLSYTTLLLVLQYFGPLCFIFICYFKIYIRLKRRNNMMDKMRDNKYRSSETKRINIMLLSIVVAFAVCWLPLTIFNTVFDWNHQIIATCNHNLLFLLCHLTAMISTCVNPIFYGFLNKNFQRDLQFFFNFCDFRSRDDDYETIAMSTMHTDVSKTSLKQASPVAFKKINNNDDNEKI

[6] = biological target: T3, Neuropeptide Y receptor type 2 (Homo sapiens, UniProt P49146); assay: Displacement of [3H]propionyl-pNPY from human Y2 receptor expressed in CHO cells measured after 2 hrs by microbeta liquid scintillation counting analysis; assay type: cell-based
T3 sequence (P49146 whole entry): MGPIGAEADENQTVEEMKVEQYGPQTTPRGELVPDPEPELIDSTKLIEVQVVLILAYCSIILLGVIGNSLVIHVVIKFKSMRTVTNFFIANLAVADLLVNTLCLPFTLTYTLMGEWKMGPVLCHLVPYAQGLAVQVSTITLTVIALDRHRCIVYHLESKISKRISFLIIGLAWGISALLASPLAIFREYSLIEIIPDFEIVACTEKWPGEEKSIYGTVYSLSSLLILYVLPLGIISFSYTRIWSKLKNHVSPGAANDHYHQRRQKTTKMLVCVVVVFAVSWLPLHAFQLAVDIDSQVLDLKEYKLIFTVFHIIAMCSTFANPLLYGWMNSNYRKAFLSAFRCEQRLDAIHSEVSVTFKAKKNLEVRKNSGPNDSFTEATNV

[7] = biological target: T4, Neuropeptide Y receptor type 5 (Homo sapiens, UniProt Q15761); assay: Displacement of [3H]propionyl-pNPY from human Y5 receptor expressed in human HEC1B cells; assay type: cell-based
T4 sequence (Q15761 whole entry): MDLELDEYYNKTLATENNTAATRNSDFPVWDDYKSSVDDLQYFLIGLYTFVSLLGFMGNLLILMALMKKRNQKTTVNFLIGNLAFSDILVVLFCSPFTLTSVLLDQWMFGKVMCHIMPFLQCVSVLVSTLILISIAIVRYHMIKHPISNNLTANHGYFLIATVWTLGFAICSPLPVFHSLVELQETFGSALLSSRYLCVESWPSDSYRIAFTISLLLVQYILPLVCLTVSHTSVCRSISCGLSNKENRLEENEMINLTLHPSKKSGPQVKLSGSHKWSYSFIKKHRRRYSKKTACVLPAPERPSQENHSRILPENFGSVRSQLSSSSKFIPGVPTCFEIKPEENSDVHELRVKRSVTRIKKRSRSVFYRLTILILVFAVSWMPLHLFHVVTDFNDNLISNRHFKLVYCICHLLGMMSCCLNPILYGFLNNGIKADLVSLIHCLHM

Homo sapiens [8] = species on record: Homo sapiens; assay: Selectivity ratio of Ki for displacement of [3H]propionyl-pNPY from human Y5 receptor expressed in human HEC1B cells to Ki for displacement of [3H]UR-KK200 from human Y4 receptor expressed in CHO cells co-expressing Gqi5-mtAEQ; assay type: cell-based
[9] = biological target: T1, Neuropeptide Y receptor type 4; assay: Displacement of [3H]UR-KK200 from human Y4 receptor expressed in CHO cells co-expressing Gqi5-mtAEQ measured after 90 mins by scintillation counting analysis; assay type: cell-based
[10] = biological target: T1, Neuropeptide Y receptor type 4; assay: Agonist activity at human Y4 receptor expressed in CHO cells co-expressing Gqi5-mtAEQ assessed as intracellular calcium mobilization measured for 43 secs in presence of coelenterazine by aequorin-reporter gene based luminescence assay; assay type: functional, cell-based; conditions: read-out: EC50

| Compound | Ratio Ki (Homo sapiens [1]) | Ratio Ki (Homo sapiens [2]) | EC50 [3] [nM] | EC50 ([4]; read-out: EC50) [nM] | Ki ([5]; read-out: Ki) [nM] | Ki ([5]; read-out: pKi (converted)) [nM] | Ki ([6]; read-out: Ki) [nM] | Ki ([6]; read-out: pKi (converted)) [nM] | Ki ([7]; read-out: Ki) [nM] | Ki ([7]; read-out: pKi (converted)) [nM] | Ratio Ki (Homo sapiens [8]) | Ki ([9]; read-out: Ki) [nM] | EC50 [10] [nM] | Ki ([5]; sk-n-mc, read-out: Ki) [nM] | Ki ([6]; cho, read-out: Ki) [nM] | Ki ([9]; read-out: pKi (converted)) [nM] | EC50 ([4]; read-out: pEC50 (converted)) [nM] |
| --- | --- | --- | --- | --- | --- | --- | --- | --- | --- | --- | --- | --- | --- | --- | --- | --- | --- |
| CC(C)C[C@H](NC(=O)[C@H](CCCNC(=N)N)NC(=O)[C@H](Cc1ccc(O)cc1)NC(=O)[C@H](CCCNC(=N)N)NC(=O)CCC(=O)O)C(=O)N[C@@H](CCCNC(=N)N)C(=O)N[C@@H](Cc1ccc(O)cc1)C(N)=O | > 750 | > 75 | 460 | 430 | > 300 | > 316 | > 3000 | > 3160 | > 10000 | > 10000 | > 2500 | 4 | 620 | – | – | – | – |
| CC(C)C[C@H](NC(=O)[C@@H](N)CCCNC(=N)N)C(=O)N[C@@H](CCCNC(=N)N)C(=O)N[C@@H](Cc1ccc(O)cc1)C(N)=O | > 2900 | > 2900 | 280 | 170 | – | > 10000 | – | > 10000 | > 10000 | > 10000 | > 2900 | 3.4 | 440 | > 10000 | > 10000 | – | – |
| CC(=O)N[C@@H](CCCNC(=N)N)C(=O)N[C@@H](Cc1c[nH]c2ccccc12)C(=O)N[C@@H](CCCNC(=N)N)C(=O)N[C@@H](CC(C)C)C(=O)N[C@@H](CCCNC(=N)N)C(=O)N[C@@H](Cc1ccc(O)cc1)C(N)=O | > 710 | > 710 | 67 | 35 | – | > 1000 | – | > 1000 | > 1000 | > 1000 | > 710 | 1.4 | 120 | > 1000 | > 1000 | – | – |
| CC(=O)N[C@@H](CCCNC(=N)N)C(=O)NC(CCCN)C(=O)NCC(=O)N[C@@H](Cc1c[nH]c2ccccc12)C(=O)N[C@@H](CCCNC(=N)N)C(=O)N[C@@H](CC(C)C)C(=O)N[C@@H](CCCNC(=N)N)C(=O)N[C@@H](Cc1ccc(O)cc1)C(N)=O (stereo partly specified) (Ac-R[ξOrn]GWRLRY-NH2) | > 230 | > 230 | 170 | 140 | – | > 1000 | – | > 1000 | > 1000 | > 1000 | > 230 | 4.3 | 230 | > 1000 | > 1000 | – | – |
| Ac-RFRLRY-NH2 | > 1100 | > 110 | 550 | 320 | – | > 1000 | – | > 10000 | > 1000 | > 1000 | > 110 | 8.9 | 550 | > 1000 | > 10000 | 8.71 | – |
| Ac-RGRLRY-NH2 | > 130 | > 380 | 180 | 250 | > 3000 | > 3160 | – | > 1000 | > 3000 | > 3160 | > 380 | 7.9 | 1200 | – | > 1000 | 7.59 | – |
| Ac-RGWRLRY-NH2 | > 1070 | > 360 | 160 | 51 | – | > 1000 | > 3000 | > 3160 | > 10000 | > 10000 | > 3600 | 2.8 | 110 | > 1000 | – | – | – |
| Ac-RGYRLRW-NH2 | 26 | > 26 | 520 | 360 | – | > 1000 | – | > 1000 | > 1000 | > 1000 | > 26 | 38 | 380 | > 1000 | > 1000 | 30.9 | – |
| Ac-RRLRY-NH2 | > 180 | > 180 | 600 | 510 | > 3000 | > 3160 | > 3000 | > 3160 | > 10000 | > 10000 | > 590 | 17 | 2500 | – | – | 14.1 | – |
| H-WRLRY-NH2 | > 5900 | > 590 | 160 | 140 | – | > 1000 | – | > 10000 | > 1000 | > 1000 | > 590 | 1.7 | 250 | > 1000 | > 10000 | 1.62 | 148 |
